System: subjects with moderately to severely active RA who have an inadequate response to methotrexate (MTX)
Experiment: Study 1 (add-on to MTX) - Creatinine levels
Type: in vivo, human
Experimental: Double-blind, placebo-controlled add on study in subjects with moderately to severely active RA who have an inadequate response to methotrexate (MTX) (oral or parenteral).
595 subjects randomized to one of 6 dose regimens of Compound 1 (dosed as [Compound 1:HCl:3H2O]) (3 dose levels administered either once or twice daily) or placebo on top of each subject's stable dose of MTX.
Compound 1 (dosed as [Compound 1:HCl:3H2O]) is dosed for twelve weeks once daily (q.d.) (50 mg, 100 mg or 200 mg) or twice daily (b.i.d.) (25 mg, 50 mg or 100 mg); or placebo.
At Week 12, the subjects on placebo who have not achieved 20% improvement in swollen joint count (SJC66) and tender joint count (TJC68) are re-randomized automatically to receive Compound 1 (dosed as a [Compound 1:HCl:3H2O]) either at 100 mg q.d. or 50 mg b.i.d. doses in a blinded fashion; subjects on 50 mg q.d. who have not achieved 20% improvement in SJC66 and TJC68 will be assigned to 100 mg q.d. and subjects on 25 mg b.i.d. that have not achieved a 20% improvement in SJC66 and TJC68 will be assigned to 50 mg b.i.d. Subjects who switch treatment at week 12 are handled as if they discontinued at week 12 for the purpose of statistical analysis, whereas subjects in the other groups will maintain their randomized treatment until Week 24.
Creatinine levels determination is available at Quest Diagnostics, Clinical Trials, Quest House, 125-135 Staines Road, Hounslow, Middlesex, TW3 3JB, United Kingdom under Catalogue n# 82565. For Study 3, the data are obtained at BARC Europe, 3B,Industrie Park, Zwijnaarde, B-9052 Ghent, Belgium.
The Enzymatic method is based on the determination of sarcosine after conversion of creatinine with the aid of creatininase, creatinase, and sarcosine oxidase. The liberated hydrogen peroxide reacts with 4-aminophenazone and HTIB to form a quinone imine chromogen. The reaction is catalyzed by peroxidase. The color intensity is directly proportional to concentration of creatinine present and can be measured photometrically.

[1] = 2 × 25 mg b.i.d. (N = 86), week 0
[2] = 2 × 25 mg b.i.d. (N = 86), week 1
[3] = 2 × 25 mg b.i.d. (N = 86), week 2
[4] = 2 × 25 mg b.i.d. (N = 86), week 4
[5] = 2 × 25 mg b.i.d. (N = 86), week 8
[6] = 2 × 25 mg b.i.d. (N = 86), week 12
[7] = 2 × 50 mg b.i.d. (N = 85), week 0
[8] = 2 × 50 mg b.i.d. (N = 85), week 1
[9] = 2 × 50 mg b.i.d. (N = 85), week 2
[10] = 2 × 50 mg b.i.d. (N = 85), week 4
[11] = 2 × 50 mg b.i.d. (N = 85), week 8
[12] = 2 × 50 mg b.i.d. (N = 85), week 12
[13] = 2 × 100 mg b.i.d. (N = 84), week 0
[14] = 2 × 100 mg b.i.d. (N = 84), week 1
[15] = 2 × 100 mg b.i.d. (N = 84), week 2
[16] = 2 × 100 mg b.i.d. (N = 84), week 4
[17] = 2 × 100 mg b.i.d. (N = 84), week 8
[18] = 2 × 100 mg b.i.d. (N = 84), week 12
[19] = continued 50 mg q.d. (N = 63), week 0
[20] = continued 50 mg q.d. (N = 63), week 1
[21] = continued 50 mg q.d. (N = 63), week 2
[22] = continued 50 mg q.d. (N = 63), week 24
[23] = placebo switched to 50 mg b.i.d. at week 12 (N = 15), week 16
[24] = placebo switched to 50 mg b.i.d. at week 12 (N = 15), week 20
[25] = placebo switched to 50 mg b.i.d. at week 12 (N = 15), week 24

`O=C(Nc1nc2cccc(-c3ccc(CN4CCS(=O)(=O)CC4)cc3)n2n1)C1CC1` [Compound 1, cyclopropanecarboxylic acid {5-[4-(1,1-dioxo-thiomorpholin-4-ylmethyl)-phenyl]-[1,2,4]triazolo[1,5-a]pyridin-2-yl}-amide] was tested, and the “Creatinine Mean CFB” value (50 mg q.d. (N = 82), week 0) was 0 µmol/L, the “Creatinine Mean percentage CFB” value (50 mg q.d. (N = 82), week 0) was 0% and the “Creatinine Mean CFB” value (50 mg q.d. (N = 82), week 1) was 1 µmol/L. For the same compound, the “Creatinine Mean percentage CFB” value (50 mg q.d. (N = 82), week 1) was 3%, the “Creatinine Mean CFB” value (50 mg q.d. (N = 82), week 2) was 1 µmol/L and the “Creatinine Mean percentage CFB” value (50 mg q.d. (N = 82), week 2) was 2%. For the same compound, the “Creatinine Mean CFB” value (50 mg q.d. (N = 82), week 4) was 1 µmol/L, the “Creatinine Mean percentage CFB” value (50 mg q.d. (N = 82), week 4) was 3% and the “Creatinine Mean CFB” value (50 mg q.d. (N = 82), week 8) was 2 µmol/L. For the same compound, the “Creatinine Mean percentage CFB” value (50 mg q.d. (N = 82), week 8) was 4%, the “Creatinine Mean CFB” value (50 mg q.d. (N = 82), week 12) was 2 µmol/L and the “Creatinine Mean percentage CFB” value (50 mg q.d. (N = 82), week 12) was 3%. For the same compound, the “Creatinine Mean CFB” value (100 mg q.d. (N = 85), week 0) was 0 µmol/L, the “Creatinine Mean percentage CFB” value (100 mg q.d. (N = 85), week 0) was 0% and the “Creatinine Mean CFB” value (100 mg q.d. (N = 85), week 1) was 2 µmol/L. For the same compound, the “Creatinine Mean percentage CFB” value (100 mg q.d. (N = 85), week 1) was 4%, the “Creatinine Mean CFB” value (100 mg q.d. (N = 85), week 2) was 3 µmol/L and the “Creatinine Mean percentage CFB” value (100 mg q.d. (N = 85), week 2) was 5%. The “Creatinine Mean CFB” value (100 mg q.d. (N = 85), week 4) was 2 µmol/L, the “Creatinine Mean percentage CFB” value (100 mg q.d. (N = 85), week 4) was 4% and the “Creatinine Mean CFB” value (100 mg q.d. (N = 85), week 8) was 2 µmol/L. For the same compound, the “Creatinine Mean percentage CFB” value (100 mg q.d. (N = 85), week 8) was 4%, the “Creatinine Mean CFB” value (100 mg q.d. (N = 85), week 12) was 4 µmol/L and the “Creatinine Mean percentage CFB” value (100 mg q.d. (N = 85), week 12) was 7%. For the same compound, the “Creatinine Mean CFB” value (200 mg q.d. (N = 86), week 0) was 0 µmol/L, the “Creatinine Mean percentage CFB” value (200 mg q.d. (N = 86), week 0) was 0% and the “Creatinine Mean CFB” value (200 mg q.d. (N = 86), week 1) was 3 µmol/L. The “Creatinine Mean percentage CFB” value (200 mg q.d. (N = 86), week 1) was 6%, the “Creatinine Mean CFB” value (200 mg q.d. (N = 86), week 2) was 3 µmol/L and the “Creatinine Mean percentage CFB” value (200 mg q.d. (N = 86), week 2) was 6%. For the same compound, the “Creatinine Mean CFB” value (200 mg q.d. (N = 86), week 4) was 4 µmol/L, the “Creatinine Mean percentage CFB” value (200 mg q.d. (N = 86), week 4) was 7% and the “Creatinine Mean CFB” value (200 mg q.d. (N = 86), week 8) was 4 µmol/L. The “Creatinine Mean percentage CFB” value (200 mg q.d. (N = 86), week 8) was 7%, the “Creatinine Mean CFB” value (200 mg q.d. (N = 86), week 12) was 4 µmol/L and the “Creatinine Mean percentage CFB” value (200 mg q.d. (N = 86), week 12) was 8%. For the same compound, the “Creatinine Mean CFB” value [1] was 0 µmol/L, the “Creatinine Mean percentage CFB” value [1] was 0% and the “Creatinine Mean CFB” value [2] was 1 µmol/L. For the same compound, the “Creatinine Mean percentage CFB” value [2] was 2%, the “Creatinine Mean CFB” value [3] was 1 µmol/L and the “Creatinine Mean percentage CFB” value [3] was 2%. The “Creatinine Mean CFB” value [4] was 0 µmol/L, the “Creatinine Mean percentage CFB” value [4] was 2% and the “Creatinine Mean CFB” value [5] was 2 µmol/L. The “Creatinine Mean percentage CFB” value [5] was 3%, the “Creatinine Mean CFB” value [6] was 1 µmol/L and the “Creatinine Mean percentage CFB” value [6] was 3%. For the same compound, the “Creatinine Mean CFB” value [7] was 0 µmol/L, the “Creatinine Mean percentage CFB” value [7] was 0% and the “Creatinine Mean CFB” value [8] was 3 µmol/L. The “Creatinine Mean percentage CFB” value [8] was 5%, the “Creatinine Mean CFB” value [9] was 4 µmol/L and the “Creatinine Mean percentage CFB” value [9] was 6%. The “Creatinine Mean CFB” value [10] was 3 µmol/L, the “Creatinine Mean percentage CFB” value [10] was 5% and the “Creatinine Mean CFB” value [11] was 3 µmol/L. For the same compound, the “Creatinine Mean percentage CFB” value [11] was 6%, the “Creatinine Mean CFB” value [12] was 4 µmol/L and the “Creatinine Mean percentage CFB” value [12] was 7%. The “Creatinine Mean CFB” value [13] was 0 µmol/L, the “Creatinine Mean percentage CFB” value [13] was 0% and the “Creatinine Mean CFB” value [14] was 5 µmol/L. For the same compound, the “Creatinine Mean percentage CFB” value [14] was 8%, the “Creatinine Mean CFB” value [15] was 4 µmol/L and the “Creatinine Mean percentage CFB” value [15] was 8%. The “Creatinine Mean CFB” value [16] was 4 µmol/L, the “Creatinine Mean percentage CFB” value [16] was 8% and the “Creatinine Mean CFB” value [17] was 7 µmol/L. The “Creatinine Mean percentage CFB” value [17] was 12%, the “Creatinine Mean CFB” value [18] was 6 µmol/L and the “Creatinine Mean percentage CFB” value [18] was 12%. The “Creatinine Mean CFB” value [19] was 0.0 µmol/L, the “Creatinine Mean percentage CFB” value [19] was 0.0% and the “Creatinine Mean CFB” value [20] was 1.4 µmol/L. For the same compound, the “Creatinine Mean percentage CFB” value [20] was 3.0%, the “Creatinine Mean CFB” value [21] was 0.7 µmol/L and the “Creatinine Mean percentage CFB” value [21] was 1.6%. The “Creatinine Mean CFB” value [22] was 0.6 µmol/L, the “Creatinine Mean percentage CFB” value [22] was 2.1% and the “Creatinine Mean CFB” value [23] was 4.2 µmol/L. The “Creatinine Mean percentage CFB” value [23] was 8.2%, the “Creatinine Mean CFB” value [24] was 3.6 µmol/L and the “Creatinine Mean percentage CFB” value [24] was 7.2%. For the same compound, the “Creatinine Mean CFB” value [25] was 4.6 µmol/L and the “Creatinine Mean percentage CFB” value [25] was 8.7%.

Source: patent US20180200257A1, “METHODS FOR THE TREATMENT OF INFLAMMATORY DISORDERS” (Galapagos NV, priority 2015, published 2018)
